Measured values: PubChem BioAssay AID2060604 (Molecular Pharmacology Branch, DTP, NCI, 2025)

Tested on: 379773-124-R-J2-PDC complex spheroids, viability % test/control
Assay: Anticancer human tumor 379773-124-R-J2-PDC patient-derived endometrial carcinoma cell line growth inhibition [CLK]
Conditions: for IC50: curve of first compound; for viability, T/C: stronger effect = lower value; active = viability on the fitted dose curve at most 10% of control; inactive = the rest
Source text: A high-throughput screen of multi-cell type tumor spheroids was designed to identify active combinations of […] and targeted small molecules. Complex spheroids include a stromal component modeled by human endothelial cells (HUVEC) and fibroblasts modeled by human mesenchymal stem cells (MSCs). The concentration ranges selected for each drug and investigational agent were based upon clinically achievable concentrations if the clinical Cmax of the agent was known.
Compounds. The drugs and investigational agents: cirtuvivint (SM08502; NSC835563), CC-671 (NSC850746), vemurafenib (NSC761431), tapotoclax (NSC804041), sotorasib (NSC818433), adagrasib (NSC831453), MRTX-1133 (NSC836407), BAY2416964 (NSC825713), copanlisib (NSC816437), inavolisib (NSC800729), abemaciclib (NSC768073), osimertinib (NSC779217), entinostat (NSC756642), eltanexor (KPT-8602, NSC794443), venetoclax (NSC766270), ceralasertib (NSC777638), bortezomib (NSC756655), olaparib (NSC753686), talazoparib (NSC767125), alisertib (NSC759677), peposertib (NSC802822), gemcitabine (NSC613327), 5-fluorouracil (NSC19893), SN-38 (NSC673596), oxaliplatin (NSC266046), paclitaxel (NSC125973), and doxorubicin (NSC123127), were obtained from the National Cancer Institute (NCI) Developmental Therapeutics Program Chemical Repository. The FDA-approved anticancer drug set is available from the Developmental Therapeutics Program at https://dtp.cancer.gov/organization/dscb/obtaining/available plates.htm. […] The stock solutions were prepared in dimethyl sulfoxide (DMSO, Sigma-Aldrich, St. Louis, MO, cat. D2650), except for the platinum complexes which were prepared in saline (Quality Biological, Gaithersburg, MD, cat. 114-055-101), at 800-fold the tested concentration and stored at -70 degrees C prior to their use. All drugs and investigational agents were tested over a range starting from a high concentration at or near the clinical Cmax and decreasing in half-log increments. If the clinical Cmax for an agent had not been determined, the highest concentration tested was 10 microM.
Cell Culture. All cells were maintained in an incubator at 37 degrees C and 5% CO2 with 95% humidity. The PDC lines were cultured according to standard operating procedures established by the NCI PDMR. Briefly, all PDCs were thawed and cultured in Matrigel-coated flasks prepared with a working solution of 1X Ham's F-12 nutrient mix, without supplementation (Invitrogen, Waltham, MA, cat. 11765054), 100 U/mL penicillin-streptomycin (Invitrogen, cat. 15140122), and 2.5% Matrigel (Corning Inc., Corning, NY, cat. 354248) for the first three passages. The 947758-054-R-J2-PDC line was cultured in 6B/Colon 1A media, which includes advanced DMEM/F-12 (Thermo Fisher Scientific, cat. 12634028), 10 mM HEPES (Thermo Fisher Scientific, cat. 15630080), 1X GlutaMAX supplement (Thermo Fisher Scientific, cat. 35050061), 0.1 mg/mL primocin (InvivoGen, cat. ant-pm-2), 10% defined fetal bovine serum, heat inactivated (HyClone Laboratories Inc., cat. SH30070.03HI), 1.25 mM N-Acetyl-L-cysteine (Sigma-Aldrich, cat. A9165), 10 mM nicotinamide (Sigma-Aldrich, cat. N0636), 1X B-27 supplement (Thermo Fisher Scientific, cat. 17504044), 1X N-2 supplement (Thermo Fisher Scientific, cat. 17502048), and 10 microM Y-27632 dihydrochloride (Tocris Bioscience, cat. 1254). The 876862-298-R-J1-PDC was cultured in 6E media, which includes all 6B/Colon 1A media components plus 50% L-WRN conditioned media (ATCC, cat. CRL-3276), 50 ng/mL recombinant human EGF recombinant protein (hEGF; Thermo Fisher Scientific, cat. PHG0311), 10 ng/mL recombinant human fibroblast growth factor 10 (hGFG-10; PeproTech, cat. 100-26), 1 ng/mL recombinant human fibroblast growth factor 2 (hFGF-2; PeproTech, cat. 100-18B), and 1 µM prostaglandin E2 (PGE2; Tocris, cat. 2296). The 227483-062-R1-J1-PDC line was cultured in Panc media, containing all 6E components except hFGF-2, with the addition of 500 nM SB-431542 (Selleckchem, cat. S1067) and 10 nM gastrin (Tocris, cat. 3006). […]
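Also: compound exposure lasted seven days before the viability readout.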
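For viability, T/C in this document: 100% = DMSO vehicle control wells.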

CC(C)CC(NC(=O)C(Cc1ccccc1)NC(=O)c1cnccn1)B(O)O (centres undefined) + CN1CCN(c2cc(C(=O)Nc3cc4cc(-c5cnn(C)c5)ccc4cn3)ccn2)CC1
1.8 nM: IC50 (second compound 0.0316 µM)
1.72 nM: IC50 (second compound 0.1 µM)
active: viability, T/C (second compound 0.0316 µM, first compound 0.00949 µM) 0.24% | viability, T/C (second compound 0.0316 µM, first compound 0.03 µM) 0.17% | viability, T/C (second compound 0.0316 µM, first compound 0.0949 µM) 0.13% | viability, T/C (second compound 0.0316 µM, first compound 0.3 µM) 0.12% | viability, T/C (second compound 0.1 µM, first compound 0.00949 µM) 1.22% | viability, T/C (second compound 0.1 µM, first compound 0.03 µM) 0.15% | viability, T/C (second compound 0.1 µM, first compound 0.0949 µM) 0.19% | viability, T/C (second compound 0.1 µM, first compound 0.3 µM) 0.11% | viability, T/C (second compound 0.316 µM, first compound 0.003 µM) 1.68% | viability, T/C (second compound 0.316 µM, first compound 0.00949 µM) 0.49% | viability, T/C (second compound 0.316 µM, first compound 0.03 µM) 0.11% | viability, T/C (second compound 0.316 µM, first compound 0.0949 µM) 0.9% | viability, T/C (second compound 0.316 µM, first compound 0.3 µM) 0.12% | viability, T/C (second compound 1 µM, first compound 0.000949 µM) 0.18% | viability, T/C (second compound 1 µM, first compound 0.003 µM) 1.45% | viability, T/C (second compound 1 µM, first compound 0.00949 µM) 0.95% | viability, T/C (second compound 1 µM, first compound 0.03 µM) 0.06% | viability, T/C (second compound 1 µM, first compound 0.0949 µM) 0.3% | viability, T/C (second compound 1 µM, first compound 0.3 µM) 0.08% | viability, T/C (second compound 3.16 µM, first compound 0.000949 µM) 0.24% | viability, T/C (second compound 3.16 µM, first compound 0.003 µM) 0.69% | viability, T/C (second compound 3.16 µM, first compound 0.00949 µM) 0.24% | viability, T/C (second compound 3.16 µM, first compound 0.03 µM) 0.05% | viability, T/C (second compound 3.16 µM, first compound 0.0949 µM) 0.07% | viability, T/C (second compound 3.16 µM, first compound 0.3 µM) 0.09% | viability, T/C (second compound 10 µM, first compound 0.000949 µM) 1.09% | viability, T/C (second compound 10 µM, first compound 0.003 µM) 0.98% | viability, T/C (second compound 10 µM, first compound 0.00949 µM) 0.26% | viability, T/C (second compound 10 µM, first compound 0.03 µM) 2.17% | viability, T/C (second compound 10 µM, first compound 0.0949 µM) 0.59% | viability, T/C (second compound 10 µM, first compound 0.3 µM) 0.24%
< 0.949 nM: IC50 (second compound 0.316 µM) | IC50 (second compound 1 µM) | IC50 (second compound 3.16 µM) | IC50 (second compound 10 µM)
inactive: viability, T/C (second compound 0.0316 µM, first compound 0.000949 µM) 83.2% | viability, T/C (second compound 0.0316 µM, first compound 0.003 µM) 23.3% | viability, T/C (second compound 0.1 µM, first compound 0.000949 µM) 84.3% | viability, T/C (second compound 0.1 µM, first compound 0.003 µM) 18.2% | viability, T/C (second compound 0.316 µM, first compound 0.000949 µM) 20.7%

CC(CO)NC(=O)c1cc(-c2ccc(Cl)cc2)nn(-c2cnn(C)c2)c1=O (centres undefined) + CN1CCN(c2cc(C(=O)Nc3cc4cc(-c5cnn(C)c5)ccc4cn3)ccn2)CC1
inactive: viability, T/C (second compound 0.0316 µM, first compound 0.0316 µM) 100% | viability, T/C (second compound 0.0316 µM, first compound 0.1 µM) 86.8% | viability, T/C (second compound 0.0316 µM, first compound 0.316 µM) 90.3% | viability, T/C (second compound 0.0316 µM, first compound 1 µM) 102% | viability, T/C (second compound 0.0316 µM, first compound 3.16 µM) 102% | viability, T/C (second compound 0.0316 µM, first compound 10 µM) 66.5% | viability, T/C (second compound 0.1 µM, first compound 0.0316 µM) 96.9% | viability, T/C (second compound 0.1 µM, first compound 0.1 µM) 86.3% | viability, T/C (second compound 0.1 µM, first compound 0.316 µM) 79.8% | viability, T/C (second compound 0.1 µM, first compound 1 µM) 105% | viability, T/C (second compound 0.1 µM, first compound 3.16 µM) 75.1% | viability, T/C (second compound 0.1 µM, first compound 10 µM) 52.9% | viability, T/C (second compound 0.316 µM, first compound 0.0316 µM) 24.6% | viability, T/C (second compound 0.316 µM, first compound 0.1 µM) 27.9% | viability, T/C (second compound 0.316 µM, first compound 0.316 µM) 33.9% | viability, T/C (second compound 0.316 µM, first compound 1 µM) 32.1% | viability, T/C (second compound 0.316 µM, first compound 3.16 µM) 32.6% | viability, T/C (second compound 0.316 µM, first compound 10 µM) 24.4%
active: viability, T/C (second compound 1 µM, first compound 0.0316 µM) 0.57% | viability, T/C (second compound 1 µM, first compound 0.1 µM) 0.17% | viability, T/C (second compound 1 µM, first compound 0.316 µM) 0.46% | viability, T/C (second compound 1 µM, first compound 1 µM) 0.65% | viability, T/C (second compound 1 µM, first compound 3.16 µM) 0.68% | viability, T/C (second compound 1 µM, first compound 10 µM) 0.88% | viability, T/C (second compound 3.16 µM, first compound 0.0316 µM) 1.45% | viability, T/C (second compound 3.16 µM, first compound 0.1 µM) 0.87% | viability, T/C (second compound 3.16 µM, first compound 0.316 µM) 0.16% | viability, T/C (second compound 3.16 µM, first compound 1 µM) 2.5% | viability, T/C (second compound 3.16 µM, first compound 3.16 µM) 1.79% | viability, T/C (second compound 3.16 µM, first compound 10 µM) 1.37% | viability, T/C (second compound 10 µM, first compound 0.0316 µM) 0.55% | viability, T/C (second compound 10 µM, first compound 0.1 µM) 0.23% | viability, T/C (second compound 10 µM, first compound 0.316 µM) 0.2% | viability, T/C (second compound 10 µM, first compound 1 µM) 0.85% | viability, T/C (second compound 10 µM, first compound 3.16 µM) 0.23% | viability, T/C (second compound 10 µM, first compound 10 µM) 0.65%
< 31.6 nM: IC50 (second compound 0.316 µM) | IC50 (second compound 1 µM) | IC50 (second compound 3.16 µM) | IC50 (second compound 10 µM)
> 10000 nM: IC50 (second compound 0.0316 µM) | IC50 (second compound 0.1 µM)
